In ChEMBL document CHEMBL1201862, “PubChem BioAssay data set” (2004):
Calls of active or inactive are those of the source.

What was measured:
[1] = NIH-3T3 fibroblast cytotoxicity, dose response, cytotoxicity control, cell-based, fluorescence, Alamar Blue, secondary assay (AID 2327); type: functional;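 also: NIH-3T3 mouse fibroblasts cultured with fluconazole at 8 µg/mL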
[2] = C. albicans growth with fluconazole, confirmation, fluorescence, retest (AID 2467); type: functional, cell-based
[3] = target: T1, Heat shock factor protein 1 (Mus musculus, UniProt P38532); experiment: HSF1 potentiators in luciferase reporter cells, confirmation, cell-based, NIH3T3, luminescence, dose retest (AID 435004); type: functional;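 also: stress induced by proteasome inhibitor MG132 added 30 min after compound; luciferase reporter driven by HSF1 response element in NIH3T3 cells; actives raise luminescence as potentiators of the MG132 stress response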
T1 sequence (P38532 whole entry): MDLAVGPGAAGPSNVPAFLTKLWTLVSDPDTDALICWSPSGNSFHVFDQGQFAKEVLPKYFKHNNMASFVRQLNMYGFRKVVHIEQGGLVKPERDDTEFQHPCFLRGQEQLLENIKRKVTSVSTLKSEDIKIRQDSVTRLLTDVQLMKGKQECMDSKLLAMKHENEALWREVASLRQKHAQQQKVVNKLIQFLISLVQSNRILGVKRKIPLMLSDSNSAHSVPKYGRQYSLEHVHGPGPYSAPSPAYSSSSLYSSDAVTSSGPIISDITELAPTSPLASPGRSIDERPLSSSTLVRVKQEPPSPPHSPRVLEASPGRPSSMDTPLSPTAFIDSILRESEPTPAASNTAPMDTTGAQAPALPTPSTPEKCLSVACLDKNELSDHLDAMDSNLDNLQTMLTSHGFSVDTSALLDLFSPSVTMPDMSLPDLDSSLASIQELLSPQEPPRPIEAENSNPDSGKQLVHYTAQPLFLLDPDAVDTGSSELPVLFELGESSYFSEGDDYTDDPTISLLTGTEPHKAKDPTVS

[4] = intracellular Trypanosoma cruzi inhibitors in host cells – cell-based, plate reader, cherry-pick samples, set 3, dose response (AID 651818); type: functional;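 also: compounds incubated with infected cells for about four days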
[5] = target: Eukaryotic translation initiation factor 4E (Mus musculus, UniProt P63073); experiment: eIF4E–eIF4G protein interaction inhibitors, dose response, biochemical, TR-FRET (AID 855); type: functional;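 also: potency for disrupting eIF4E binding to eIF4GI seen as loss of FRET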
Sequence of Eukaryotic translation initiation factor 4E (P63073 whole entry, the tested form may be a part): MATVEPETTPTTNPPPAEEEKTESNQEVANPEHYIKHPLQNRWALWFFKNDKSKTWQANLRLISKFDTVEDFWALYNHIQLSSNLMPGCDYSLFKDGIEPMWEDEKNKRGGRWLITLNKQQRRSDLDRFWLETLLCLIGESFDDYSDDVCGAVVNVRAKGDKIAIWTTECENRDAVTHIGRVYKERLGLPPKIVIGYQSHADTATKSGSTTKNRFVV

Fatty acid synthase [6] = target: T2, Fatty acid synthase (Homo sapiens, UniProt P49327); experiment: FAS thioesterase domain inhibitors, dose response, biochemical, endpoint fluorescence intensity, uHTS hits (AID 624327); type: functional;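 also: fluorescence from hydrolysis of an O-methyl fluorescein acyl ester substrate by the enzyme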
T2 sequence (P49327 whole entry, the tested form may be a part): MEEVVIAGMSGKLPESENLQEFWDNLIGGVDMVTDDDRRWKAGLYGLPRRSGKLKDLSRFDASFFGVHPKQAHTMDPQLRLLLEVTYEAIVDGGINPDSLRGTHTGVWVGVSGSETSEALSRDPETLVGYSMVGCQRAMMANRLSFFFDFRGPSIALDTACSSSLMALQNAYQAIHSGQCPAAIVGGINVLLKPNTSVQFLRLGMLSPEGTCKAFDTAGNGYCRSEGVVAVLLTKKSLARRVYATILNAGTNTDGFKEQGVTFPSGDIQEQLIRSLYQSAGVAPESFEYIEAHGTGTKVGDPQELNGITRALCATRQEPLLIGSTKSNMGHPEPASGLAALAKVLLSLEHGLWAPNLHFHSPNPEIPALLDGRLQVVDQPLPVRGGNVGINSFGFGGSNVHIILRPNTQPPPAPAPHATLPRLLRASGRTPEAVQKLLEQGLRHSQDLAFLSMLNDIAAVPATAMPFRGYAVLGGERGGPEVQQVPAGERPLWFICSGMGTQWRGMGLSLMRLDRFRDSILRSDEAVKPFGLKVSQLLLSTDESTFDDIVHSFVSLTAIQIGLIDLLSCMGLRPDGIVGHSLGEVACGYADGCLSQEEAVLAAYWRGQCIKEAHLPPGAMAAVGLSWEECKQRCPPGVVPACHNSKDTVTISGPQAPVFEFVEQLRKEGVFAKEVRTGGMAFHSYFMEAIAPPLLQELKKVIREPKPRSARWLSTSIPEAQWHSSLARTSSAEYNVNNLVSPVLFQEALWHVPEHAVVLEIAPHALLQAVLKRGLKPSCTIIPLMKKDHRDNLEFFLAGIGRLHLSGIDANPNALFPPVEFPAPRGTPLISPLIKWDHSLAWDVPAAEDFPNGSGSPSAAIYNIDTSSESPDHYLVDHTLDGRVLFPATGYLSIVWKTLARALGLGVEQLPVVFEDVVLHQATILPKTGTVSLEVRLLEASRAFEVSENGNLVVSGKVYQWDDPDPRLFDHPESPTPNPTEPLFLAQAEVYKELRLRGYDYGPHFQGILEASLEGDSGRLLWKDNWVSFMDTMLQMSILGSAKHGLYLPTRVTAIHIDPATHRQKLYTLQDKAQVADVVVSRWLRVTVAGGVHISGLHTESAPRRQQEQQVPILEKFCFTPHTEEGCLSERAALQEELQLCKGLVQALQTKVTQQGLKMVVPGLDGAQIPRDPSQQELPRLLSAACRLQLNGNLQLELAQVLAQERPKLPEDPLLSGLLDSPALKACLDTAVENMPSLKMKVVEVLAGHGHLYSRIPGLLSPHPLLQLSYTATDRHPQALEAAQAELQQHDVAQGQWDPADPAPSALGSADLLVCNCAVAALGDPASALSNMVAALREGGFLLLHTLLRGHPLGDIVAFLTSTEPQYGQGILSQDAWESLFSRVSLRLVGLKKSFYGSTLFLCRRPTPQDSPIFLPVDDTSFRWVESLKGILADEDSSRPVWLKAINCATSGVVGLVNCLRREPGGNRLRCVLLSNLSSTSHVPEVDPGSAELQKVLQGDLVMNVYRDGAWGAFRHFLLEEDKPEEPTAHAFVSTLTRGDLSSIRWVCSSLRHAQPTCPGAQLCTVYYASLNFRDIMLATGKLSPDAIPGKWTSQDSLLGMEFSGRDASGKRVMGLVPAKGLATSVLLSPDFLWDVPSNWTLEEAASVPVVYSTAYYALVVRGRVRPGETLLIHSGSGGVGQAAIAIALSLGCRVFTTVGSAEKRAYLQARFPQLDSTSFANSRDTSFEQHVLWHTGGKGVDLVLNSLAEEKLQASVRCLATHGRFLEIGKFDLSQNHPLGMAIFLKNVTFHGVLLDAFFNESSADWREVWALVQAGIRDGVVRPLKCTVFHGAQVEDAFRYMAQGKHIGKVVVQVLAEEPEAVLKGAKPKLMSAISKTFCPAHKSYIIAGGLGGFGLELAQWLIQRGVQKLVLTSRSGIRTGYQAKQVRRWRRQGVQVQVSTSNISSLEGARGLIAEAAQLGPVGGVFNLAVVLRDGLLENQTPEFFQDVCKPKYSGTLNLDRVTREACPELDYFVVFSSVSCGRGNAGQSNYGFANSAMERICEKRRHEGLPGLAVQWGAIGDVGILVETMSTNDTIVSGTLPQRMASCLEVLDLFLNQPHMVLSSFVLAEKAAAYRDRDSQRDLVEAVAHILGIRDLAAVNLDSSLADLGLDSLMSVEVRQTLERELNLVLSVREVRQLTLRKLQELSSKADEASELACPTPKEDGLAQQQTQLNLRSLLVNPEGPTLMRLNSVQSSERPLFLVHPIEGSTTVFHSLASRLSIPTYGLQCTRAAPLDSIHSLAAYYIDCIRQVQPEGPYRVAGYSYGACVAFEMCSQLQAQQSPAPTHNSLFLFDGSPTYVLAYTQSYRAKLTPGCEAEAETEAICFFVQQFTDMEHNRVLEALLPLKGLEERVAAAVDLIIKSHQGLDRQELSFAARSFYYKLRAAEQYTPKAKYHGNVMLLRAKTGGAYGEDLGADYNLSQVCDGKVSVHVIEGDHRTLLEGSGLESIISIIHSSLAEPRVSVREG

Fatty acid synthase [7] = target: T2, Fatty acid synthase; experiment: FAS thioesterase domain inhibitors, dose response, biochemical, kinetic fluorescence intensity (AID 624326); type: functional;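 also: rate of fluorescence rise from hydrolysis of a fluorogenic O-methyl fluorescein ester substrate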
[8] = target: T3, Low molecular weight phosphotyrosine protein phosphatase (Homo sapiens, UniProt P24666); type: functional; details: read-out: IC50_Mean;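 also: Dose-response confirmation assay measuring inhibition of LMPTP enzyme activity by fluorescence intensity read-out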
T3 sequence (P24666 whole entry): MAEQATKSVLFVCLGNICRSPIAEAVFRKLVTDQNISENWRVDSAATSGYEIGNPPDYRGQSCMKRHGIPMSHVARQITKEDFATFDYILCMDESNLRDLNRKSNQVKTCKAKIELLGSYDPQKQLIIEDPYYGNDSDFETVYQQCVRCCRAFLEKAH

cells [9] = type: functional, cell-based
cells [10] = type: functional, cell-based; remark: listed apart in the source
[11] = target: Nuclear receptor subfamily 5 group A member 2 (Homo sapiens, UniProt O00482); type: functional, cell-based;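 also: HEK293T cells transfected with LRH-1 and a StAR promoter luciferase reporter; potency for inhibitors that lower LRH-1 driven reporter light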
Sequence of Nuclear receptor subfamily 5 group A member 2 (O00482 whole entry): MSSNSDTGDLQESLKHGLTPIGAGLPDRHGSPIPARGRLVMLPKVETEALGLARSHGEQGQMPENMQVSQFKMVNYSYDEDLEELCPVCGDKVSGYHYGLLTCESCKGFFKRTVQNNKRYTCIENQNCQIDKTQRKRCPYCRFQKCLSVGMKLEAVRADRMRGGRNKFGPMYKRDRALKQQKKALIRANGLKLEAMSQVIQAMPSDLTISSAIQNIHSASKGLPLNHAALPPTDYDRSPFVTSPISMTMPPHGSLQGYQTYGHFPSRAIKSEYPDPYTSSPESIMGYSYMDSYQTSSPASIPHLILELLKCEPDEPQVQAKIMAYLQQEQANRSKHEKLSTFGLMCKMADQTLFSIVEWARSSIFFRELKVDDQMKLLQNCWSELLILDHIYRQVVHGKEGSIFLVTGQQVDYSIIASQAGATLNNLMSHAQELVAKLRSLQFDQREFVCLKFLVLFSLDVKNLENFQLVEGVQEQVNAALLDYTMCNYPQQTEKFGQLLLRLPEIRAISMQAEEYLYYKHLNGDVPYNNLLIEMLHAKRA

Steroidogenic factor 1 = Steroidogenic factor 1 (Homo sapiens, UniProt Q13285); experiment: Counterscreen for inverse agonists of the liver receptor homolog-1 (LRH-1; NR5A2): Luminescence-based cell-based high throughput dose response assay to identify inverse agonists of the Steroidogenic Factor 1 Nuclear Receptor (SF1; NR5A1).; type: functional
Sequence of Steroidogenic factor 1 (Q13285 whole entry): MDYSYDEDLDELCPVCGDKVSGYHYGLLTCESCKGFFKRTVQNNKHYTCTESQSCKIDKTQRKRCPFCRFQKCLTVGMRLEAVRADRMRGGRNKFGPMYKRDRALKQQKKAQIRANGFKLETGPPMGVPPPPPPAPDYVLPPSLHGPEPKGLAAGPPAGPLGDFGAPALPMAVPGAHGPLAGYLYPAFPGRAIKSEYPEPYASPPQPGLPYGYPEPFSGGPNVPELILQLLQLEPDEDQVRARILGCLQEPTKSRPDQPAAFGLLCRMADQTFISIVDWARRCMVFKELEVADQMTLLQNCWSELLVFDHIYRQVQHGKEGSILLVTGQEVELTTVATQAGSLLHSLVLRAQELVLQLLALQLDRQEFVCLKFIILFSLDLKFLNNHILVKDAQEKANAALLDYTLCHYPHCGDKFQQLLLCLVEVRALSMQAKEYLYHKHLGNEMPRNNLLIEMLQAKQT

[12] = StAR promoter reporter inhibition counter-screen, dose response, counter-screen for LRH-1 inverse agonist project, cell-based, luminescence, luciferase reporter (AID 651969); type: functional
[13] = target: T4, RNA-binding protein pos-1 (Caenorhabditis elegans, UniProt G5EF15); experiment: inhibitors of POS-1/mex-3 RNA binding, dose response, biochemical, fluorescence polarization (AID 1964);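 also: purified POS-1 fused to maltose binding protein made in E. coli; potency of compounds blocking POS-1 binding to fluorescent RNA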
T4 sequence (G5EF15 whole entry): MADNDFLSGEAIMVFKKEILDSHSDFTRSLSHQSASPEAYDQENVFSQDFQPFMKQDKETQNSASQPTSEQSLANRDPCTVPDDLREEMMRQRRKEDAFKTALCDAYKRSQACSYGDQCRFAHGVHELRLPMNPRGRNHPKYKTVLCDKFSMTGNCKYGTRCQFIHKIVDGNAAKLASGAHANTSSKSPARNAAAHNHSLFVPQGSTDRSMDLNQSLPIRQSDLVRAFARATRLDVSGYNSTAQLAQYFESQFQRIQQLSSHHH

[14] = target: T5, Zinc finger protein mex-5 (Caenorhabditis elegans, UniProt Q9XUB2); experiment: MEX-5/TCR-2 RNA interaction inhibitors, dose response, biochemical, C. elegans, fluorescence polarization (AID 1960)
T5 sequence (Q9XUB2 whole entry): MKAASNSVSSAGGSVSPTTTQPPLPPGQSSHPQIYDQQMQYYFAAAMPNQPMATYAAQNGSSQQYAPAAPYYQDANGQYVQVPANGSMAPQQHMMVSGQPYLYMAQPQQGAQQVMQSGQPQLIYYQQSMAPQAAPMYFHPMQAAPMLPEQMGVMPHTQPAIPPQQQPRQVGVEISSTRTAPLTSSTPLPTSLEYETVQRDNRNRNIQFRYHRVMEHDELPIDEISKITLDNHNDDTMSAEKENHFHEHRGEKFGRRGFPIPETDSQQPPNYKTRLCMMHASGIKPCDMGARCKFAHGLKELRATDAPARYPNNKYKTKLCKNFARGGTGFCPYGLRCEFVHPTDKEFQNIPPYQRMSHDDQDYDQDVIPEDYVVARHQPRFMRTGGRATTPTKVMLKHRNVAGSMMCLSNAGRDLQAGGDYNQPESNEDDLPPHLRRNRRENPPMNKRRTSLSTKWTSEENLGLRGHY

Large T antigen = Large T antigen (Simian virus 40, UniProt P03070); type: functional, Betapolyomavirus macacae;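 also: Confirmatory-stage PubChem screen for compounds that inhibit SV40 T antigen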
Sequence of Large T antigen (P03070 whole entry): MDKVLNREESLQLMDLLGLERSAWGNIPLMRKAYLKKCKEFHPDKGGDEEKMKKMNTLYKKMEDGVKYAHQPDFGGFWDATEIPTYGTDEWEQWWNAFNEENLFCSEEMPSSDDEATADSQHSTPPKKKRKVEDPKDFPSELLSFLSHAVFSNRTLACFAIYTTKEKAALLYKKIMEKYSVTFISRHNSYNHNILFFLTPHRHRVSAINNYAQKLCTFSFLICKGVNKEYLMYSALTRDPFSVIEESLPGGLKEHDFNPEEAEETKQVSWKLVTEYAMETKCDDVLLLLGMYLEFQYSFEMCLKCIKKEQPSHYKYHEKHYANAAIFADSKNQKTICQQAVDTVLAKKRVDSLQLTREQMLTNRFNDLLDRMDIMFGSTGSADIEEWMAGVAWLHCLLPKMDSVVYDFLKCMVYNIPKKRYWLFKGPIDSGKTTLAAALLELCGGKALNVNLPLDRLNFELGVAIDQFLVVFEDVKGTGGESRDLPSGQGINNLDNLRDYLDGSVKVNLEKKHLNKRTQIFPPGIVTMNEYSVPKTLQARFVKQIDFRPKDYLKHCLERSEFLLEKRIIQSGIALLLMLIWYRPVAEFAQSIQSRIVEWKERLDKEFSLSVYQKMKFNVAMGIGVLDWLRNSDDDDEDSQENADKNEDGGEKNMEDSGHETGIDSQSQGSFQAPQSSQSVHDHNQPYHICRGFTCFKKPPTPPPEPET

[15] = target: Glucose-6-phosphate 1-dehydrogenase (Homo sapiens, UniProt P11413); experiment: human G6PD enzyme inhibitors, dose response, selectivity assay for P. falciparum G6PD inhibitor project, biochemical, fluorescence (AID 504792); type: functional
Sequence of Glucose-6-phosphate 1-dehydrogenase (P11413 whole entry): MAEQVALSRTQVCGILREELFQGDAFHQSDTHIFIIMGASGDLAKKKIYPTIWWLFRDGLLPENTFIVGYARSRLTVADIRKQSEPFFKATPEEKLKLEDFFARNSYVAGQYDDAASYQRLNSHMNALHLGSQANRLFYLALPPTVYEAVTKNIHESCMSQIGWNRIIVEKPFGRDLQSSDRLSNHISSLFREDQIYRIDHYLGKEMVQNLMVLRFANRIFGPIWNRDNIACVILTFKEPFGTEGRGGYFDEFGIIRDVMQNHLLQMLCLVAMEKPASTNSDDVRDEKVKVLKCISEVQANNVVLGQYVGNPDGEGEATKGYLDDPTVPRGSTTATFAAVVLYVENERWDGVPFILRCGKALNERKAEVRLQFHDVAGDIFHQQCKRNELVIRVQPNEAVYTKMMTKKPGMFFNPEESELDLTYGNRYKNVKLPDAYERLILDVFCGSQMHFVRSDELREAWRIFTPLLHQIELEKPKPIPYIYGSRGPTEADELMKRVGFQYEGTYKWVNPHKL

[16] = Shn3 3'UTR reporter inhibitors, dose response, cell-based, Clone20 osteoblasts, firefly luciferase, cherry-picked (AID 624132); type: functional;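 also: firefly luciferase luminescence from reporter carrying the Shn3 3'UTR in osteoblasts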
[17] = HepG2 cell cytotoxicity, dose response, cytotoxicity control for Shn3 inhibitor project, CellTiter-Glo, cherry-picked (AID 624134); type: functional, cell-based
[18] = control 3'UTR Renilla luciferase suppression, dose response, counter-screen for Shn3 inhibitor project, cell-based, Clone20-Shn3RL, cherry-picked (AID 624133); type: functional
[19] = A Cell Based Secondary Assay To Explore Cytotoxicity of Compounds that Sensitize Mycobacterium Tuberculosis to Beta-Lactam Antibiotics.; type: functional
[20] = ZM109 Env clade C HIV-1 fusion inhibitors, dose response, HeLa effector, CEM target cells, luciferase, cherry-pick (AID 652058); type: functional, cell-based
[21] = inhibitors of HIV Env-driven cell fusion, dose response, cherry-pick (AID 652057); type: functional, cell-based
[22] = target: Heat shock protein HSP 90-alpha (Homo sapiens, UniProt P07900); type: functional, organism-based
[23] = target: Dual specificity tyrosine-phosphorylation-regulated kinase 1A (Rattus norvegicus, UniProt Q63470); type: biochemical, Homo sapiens
[24] = HEp-2 cell cytotoxicity, dose response, cytotoxicity control for RSV inhibitor project, HTS (AID 2410); type: functional; details: human respiratory syncytial virus

COc1ccc(-n2nc3c(N4CCC(C(=O)N5CCC(C)CC5)CC4)nnc(C)c3c2C)cc1
EC50 [1]: > 160 µM (inactive)
EC50 [2]: > 38 µM (not active)
EC50 [3]: > 260 µM (inactive)

Cc1ccc(S(=O)(=O)Nc2cccc3c2O[C@H](CN(C)Cc2ccc(C(=O)Nc4ccccc4N)cc2)[C@H](C)CN([C@H](C)CO)C3=O)cc1
AC50 [4]: 2.26 µM (active)

CC1CCN(C(=O)c2ccc3c(Cl)c4c(nc3c2)CCCC4)CC1
IC50 [5]: 50 µM (inactive)
IC50 (Fatty acid synthase [6]): 5.24 µM (active)
IC50 (Fatty acid synthase [7]): 6.9 µM (active)

CC(C)(C)CC(=O)Nc1nnc(C(F)(F)F)s1
EC50 [1]: > 160 µM (inactive)
EC50 [2]: 0.13 µM (active)

CCn1cc(C(=O)O)c(=O)c2cc(F)c(N3CCN(C(=S)NC(=O)c4ccc(F)cc4)CC3)cc21
IC50 [8]: 11.7 µM (active)

CCCn1c(SCC(=O)Nc2ccccc2CC)nnc1C(C)C
EC50 (cells [9]): > 350 µM (not active)
EC50 (cells [10]): > 350 µM (not active)

CC(C)(C)c1ccc(/C=C2\CCn3c2nc2cc(C(=O)O)ccc2c3=O)cc1
IC50 (Fatty acid synthase [6]): 3.26 µM (active)
IC50 (Fatty acid synthase [7]): 3 µM (active)

Cc1ccc(NC(=O)CSc2nc3nc(O)cc(O)c3s2)c(Br)c1
IC50 [11]: 35.9 µM (inactive)
IC50 (Steroidogenic factor 1): 9.35 µM (active)
IC50 [12]: 35.9 µM (inactive)

CC(=O)Nc1ccc(NC(=O)CSc2nnnn2C2CCCCC2)cc1
IC50 [11]: 11.8 µM (inactive)
IC50 (Steroidogenic factor 1): 7.58 µM (active)
IC50 [12]: 35.9 µM (inactive)

COc1ccc(CCNC(=O)COC(=O)c2cc(Cl)nc(Cl)c2)cc1
IC50 [11]: 8.32 µM (active)
IC50 (Steroidogenic factor 1): 3.23 µM (active)
IC50 [12]: 35.9 µM (inactive)

C=CCn1c(O)c(N=NC(=S)Nc2ccc(OC)cc2)c2ccccc21
EC50 [1]: > 150 µM (inactive)

CCCN1CCc2cc(O)cc3c2[C@H]1Cc1ccc(O)c(O)c1-3
EC50 [13]: > 300 µM (inconclusive)
EC50 [14]: > 300 µM (inconclusive)
IC50 (Large T antigen): 24 µM (active)
IC50 [15]: > 80 µM (inactive)

CCn1c(=S)sc2c(=O)n(CC(=O)NC(C)CCc3ccccc3)c(C)nc21 (configuration not stated)
IC50 (Fatty acid synthase [6]): 9.52 µM (active)
IC50 (Fatty acid synthase [7]): 16.8 µM (active)

CCOC(=O)c1c(-c2ccccc2)oc2cc(CN(C)C)c(O)c(CN(C)C)c12
EC50 (cells [9]): 28 µM (active)
EC50 (cells [10]): > 350 µM (not active)
AC50 [16]: 7.81 µM (active)
AC50 [17]: 21.2 µM (active)
AC50 [18]: 5.5 µM (active)

C[C@H](CO)N1C[C@H](C)[C@@H](CN(C)Cc2ccc(C(F)(F)F)cc2)Oc2c(NC(=O)c3nc4ccccc4s3)cccc2C1=O
AC50 [4]: 1.05 µM (active)

CCc1sc2nc(SCC(=O)Nc3cc(C)on3)n(-c3cccc(OC)c3)c(=O)c2c1C
CC50 [19]: 36.3 µM (active)

CC(C)Cn1c2c(c(O)c(C(=O)Nc3ccc(F)cc3)c1=O)CCCC2
CC50 [19]: > 40 µM (active)

Cc1cccc(CCNC(=O)Cn2ncc3c4cc(C)ccc4nc-3c2O)c1
EC50 (cells [9]): > 350 µM (not active)
EC50 (cells [10]): > 350 µM (not active)

CCOc1ccc(OCCN2C(=O)NC(Cc3c[nH]c4ccccc34)C2=O)cc1 (configuration not stated)
IC50 [11]: 4.18 µM (active)
IC50 (Steroidogenic factor 1): 5.29 µM (active)
IC50 [12]: 35.9 µM (inactive)

Nc1nc(CN2CCN(c3ccccn3)CC2)nc(Nc2ccc(F)cc2)n1
EC50 [1]: > 150 µM (inconclusive)
EC50 [2]: > 38 µM (not active)

COc1ccc(CCn2c(C)cc(C(=O)COC(=O)c3ccc(O)cc3O)c2C)cc1
IC50 [11]: 35.9 µM (inactive)
IC50 (Steroidogenic factor 1): 5.82 µM (active)
IC50 [12]: 35.9 µM (inactive)

O=C(CCc1ccc(O)c(O)c1)N/N=C/c1cc2c(cc1[N+](=O)[O-])OCO2
EC50 [13]: 24 µM (active)
EC50 [14]: 6.35 µM (active)
IC50 (Large T antigen): 13.8 µM (active)
IC50 [15]: > 80 µM (inactive)

CC(=O)Nc1cc(-c2ccc(S(C)(=O)=O)cc2)cn2c(-c3ccc(F)cc3)cnc12
IC50 [11]: 8.24 µM (active)
IC50 (Steroidogenic factor 1): 3.11 µM (active)
IC50 [12]: 23.7 µM (inactive)

C[C@@H]1CCCCO[C@@H](CN(C)Cc2ccc(C(F)(F)F)cc2)[C@@H](C)CN([C@H](C)CO)C(=O)c2cc(NS(=O)(=O)c3ccc(Cl)cc3)ccc2O1
AC50 [4]: 3.01 µM (active)

CCc1ccc(C(=O)CN2C(=O)NC(C)(c3ccc(C)cc3)C2=O)cc1 (configuration not stated)
AC50 [20]: 69 µM (active)

C[C@H]1CN([C@@H](C)CO)C(=O)c2cccc(NS(=O)(=O)c3ccccc3)c2O[C@H]1CN(C)Cc1ccc(C(=O)Nc2ccccc2N)cc1
AC50 [4]: 3.48 µM (active)

C[C@@H]1CN([C@@H](C)CO)S(=O)(=O)c2ccc(C3=CCCC3)cc2O[C@@H]1CN(C)C(=O)C1CCOCC1
AC50 [21]: 59 µM (active)
AC50 [20]: 10.2 µM (active)

O=C(/C=C/c1ccccn1)c1cc(Br)ccc1O
CC50 [19]: > 40 µM (active)
AC50 [22]: 2.03 µM (active)

NNc1nc2c(Cl)ccc(Cl)c2s1
AC50 [23]: 0.905 µM (active)

CN(C)c1ccc(NC(=O)C2C3C=CC(C3)C2C(=O)O)cc1 (configuration not stated)
EC50 [1]: > 160 µM (inactive)
EC50 [2]: > 38 µM (not active)

O=c1c(/N=N/c2ccc(O)cc2)c(-c2ccccc2)[nH]n1-c1ccc([N+](=O)[O-])cc1
CC50 [19]: 17.7 µM (active)

O=C(CCn1c(=O)c2ccccc2n(Cc2cccc([N+](=O)[O-])c2)c1=O)N1CCc2ccccc2C1
CC50 [24]: > 50 µM (active)
IC50 (Fatty acid synthase [6]): 1.26 µM (active)
IC50 (Fatty acid synthase [7]): 1.17 µM (active)

O=C(Nc1cccc(-c2cn3ccccc3n2)c1)c1cc2ccccc2oc1=O
IC50 [8]: 7.49 µM (active)

C[C@@H]1CN([C@H](C)CO)C(=O)Cc2cc(NC(=O)Nc3ccc(C(F)(F)F)cc3)ccc2O[C@H]1CN(C)Cc1ccccc1
AC50 [4]: 4.06 µM (active)

O=C(Nc1cccc(-c2nn[nH]n2)c1)c1ccc(Br)s1
AC50 [23]: 0.875 µM (active)
